We go through three molecules from article PMC7970697, “Inhibition and Induction by Poziotinib of Different Rat Cytochrome P450 Enzymes In Vivo and in an In Vitro Cocktail Method” (Frontiers in Pharmacology, 2021).

The nature of the data set: Pharmacokinetics of probe substrates in rats with or without poziotinib pre-treatment. The settings on record: for CL/F: CLz/F; for MRT last: MRT(0–t); for MRT inf: MRT(0–∞); for Vd/F: Vz/F; for half-life: t1/2z. The method, then:
Samples were analyzed by a UPLC-MS/MS system equipped with a triple quadrupole mass spectrometer (Waters Corp., Milford, MA, United States) and Acquity UPLC BEH C18 column (1.7 μm, 2.1 × 50 mm) at 40°C. The mobile phase consisted of acetonitrile (A) and 0.1% formic acid (B) with a linear gradient elution at 0.4 ml/min for 3 min.
Twelve male Sprague-Dawley rats (230 ± 20 g) were randomly divided into treated and control groups, with 6 in each group. […] The supernatant was mixed with 200 μL of acetonitrile and 20 μL of 0.5 μg/ml diazepam (IS), vortexed for 30 s, centrifuged at 13,000 rpm for 5 min, and the supernatant was injected into the UPLC-MS/MS system for analysis.
Pharmacokinetic parameters were calculated using DAS software (Version 3.2.8). SPSS software (version 16.0; SPSS Inc., Chicago, IL, United States) was used to analyze the significance of differences between the main pharmacokinetic parameters. p < 0.05 was considered statistically significant. GraphPad (version 8.0; GraphPad Software Inc., San Diego, CA, United States) was used to calculate IC50 and plot the plasma concentration-time curves and inhibition plots (type of inhibition, time- and concentration-dependence).

Where [1] appears, read: male, Sprague-Dawley, rat, in vivo, po, Control group: oral probe cocktail only (10 mg/kg; tolbutamide 1 mg/kg), rats, n = 6.
Where [2] appears, read: male, Sprague-Dawley, rat, in vivo, po, Treated group: oral probe cocktail (10 mg/kg; tolbutamide 1 mg/kg) after 7 days oral poziotinib 5 mg/kg, rats, n = 6.
Setting [3] is: rats, poziotinib 5 mg/kg 7 days vs probes only.
Where [4] appears, read: male, Sprague-Dawley, rat, in vivo, po, 10 mg/kg.
[5] abbreviates: male, Sprague-Dawley, rat, plasma, po, 10 mg/kg, Control group: oral probe cocktail only (10 mg/kg; tolbutamide 1 mg/kg), rats, n = 6.
[6] abbreviates: male, Sprague-Dawley, rat, plasma, po, 10 mg/kg, Treated group: oral probe cocktail (10 mg/kg; tolbutamide 1 mg/kg) after 7 days oral poziotinib 5 mg/kg, rats, n = 6.
The mark [7] stands for this setting: male, Sprague-Dawley, rat, in vivo, po.
Setting [8] is: male, Sprague-Dawley, rat, plasma, po, Control group: oral probe cocktail only (10 mg/kg; tolbutamide 1 mg/kg), rats, n = 6.
Setting [9] is: rats, poziotinib 5 mg/kg 7 days vs probes only (Discussion).

As for `COc1ccc2c(c1)[C@]13CCCC[C@@H]1[C@H](C2)N(C)CC3` [Dextromethorphan], the AUC(0-t) (commonly exposure summed from dosing to a finite time, without extrapolation to infinity) (male, Sprague-Dawley, rat, in vivo, po, AUC(0–t), Control group: oral probe cocktail only (10 mg/kg; tolbutamide 1 mg/kg), rats, n = 6) worked out at 575 ± 77.7 ng·h/mL. Where the note is “male, Sprague-Dawley, rat, in vivo, po, AUC(0–t), Treated group: oral probe cocktail (10 mg/kg; tolbutamide 1 mg/kg) after 7 days oral poziotinib 5 mg/kg, rats, n = 6”, the AUC(0-t) was 640 ± 197 ng·h/mL. For the same molecule, under setting [1], the AUC(0-inf) (commonly total exposure, with the tail of the curve extrapolated) is 586 ± 79.3 ng·h/mL; the CL/F – broadly, clearance divided by bioavailability, as obtained after extravascular dosing – was 289 mL/min/kg; the MRT last (as a rule, the average time that molecules of a dose stay in the body) worked out at 3.12 ± 0.37 h; the MRT inf (in general, the average time that molecules of a dose stay in the body) came out at 3.35 ± 0.47 h. Under setting [1], the Vd/F (commonly the volume of distribution divided by bioavailability) was 49 ± 10.7 L/kg and the half-life (in general, how long it takes for the measured level to halve) is 1.98 ± 0.43 h. Further, under setting [2], the AUC(0-inf) came out at 722 ± 231 ng·h/mL, the CL/F is 250 mL/min/kg, the MRT last was 3.54 ± 0.51 h and the mean residence time (MRT inf) was 5.19 ± 2.68 h. Moreover, under setting [2], the Vd/F stood at 75.5 ± 33.1 L/kg and the half-life was 3.72 ± 2.09 h. In addition, the Cmax (commonly the maximum level reached in the sampled fluid or tissue) (male, Sprague-Dawley, rat, in vivo, po, Cmax, Control group: oral probe cocktail only (10 mg/kg; tolbutamide 1 mg/kg), rats, n = 6) is 152 ± 57.7 ng/mL. For the same molecule, the Cmax (male, Sprague-Dawley, rat, in vivo, po, Cmax, Treated group: oral probe cocktail (10 mg/kg; tolbutamide 1 mg/kg) after 7 days oral poziotinib 5 mg/kg, rats, n = 6) was 153 ± 42.3 ng/mL. Moreover, the Tmax (as a rule, the time at which the peak concentration occurs) (male, Sprague-Dawley, rat, in vivo, po, Tmax, Control group: oral probe cocktail only (10 mg/kg; tolbutamide 1 mg/kg), rats, n = 6) amounted to 1.04 ± 0.56 h. For the same molecule, the Tmax (male, Sprague-Dawley, rat, in vivo, po, Tmax, Treated group: oral probe cocktail (10 mg/kg; tolbutamide 1 mg/kg) after 7 days oral poziotinib 5 mg/kg, rats, n = 6) was 1.58 ± 0.92 h. Besides, the “difference in main pharmacokinetic parameters between treated and control group (in words)” value under setting [3] is “no significant differences”.

Regarding `CCOc1ccc(NC(C)=O)cc1` [Phenacetin], the maximum concentration (Cmax) (Control group: oral probe cocktail only (10 mg/kg; tolbutamide 1 mg/kg), rats, n = 6) was 2,869.22 ± 783.32 µg/L. Under setting [4], the AUC(0-t) is 6320 ng·h/mL, the “MRT(0–t)” value was 1.46 ± 0.22 h, the Tmax amounted to 0.75 ± 0.27 h and the t1/2z was found to be 0.55 ± 0.15 h. Under setting [4], this molecule had an MRT last of 1.41 ± 0.13 h, an MRT inf of 1.46 ± 0.15 h and a half-life of 0.8 ± 0.12 h. In addition, the Tmax (male, Sprague-Dawley, rat, in vivo, po, 10 mg/kg, Tmax) stood at 0.54 ± 0.25 h. The AUC(0-t) (male, Sprague-Dawley, rat, plasma, po, 10 mg/kg) was found to be 2770 ng·h/mL. Moreover, under setting [5], the apparent clearance CL/F was 30.7 mL/min/kg and the Vd/F worked out at 1.57 ± 0.9 L/kg. In addition, under setting [6], the CL/F was 66.5 mL/min/kg and the Vd/F was 4.77 ± 2.26 L/kg. For the same molecule, the Cmax (male, Sprague-Dawley, rat, plasma, po, 10 mg/kg, Cmax, Treated group: oral probe cocktail (10 mg/kg; tolbutamide 1 mg/kg) after 7 days oral poziotinib 5 mg/kg, rats, n = 6) was 1490 ng/mL. Also, under setting [3], the “AUC (0–t) reduced by, treated vs control group” value is 56.08%; the “AUC (0–∞) reduced by, treated vs control group” value was 55.81%; the “CLz/F increased by, treated vs control group” value was found to be 116.85%; the “Cmax reduced by, treated vs control group” value was found to be 48.06%. Under setting [3], the “Vz/F increased by, treated vs control group” value is reported as 203.82% and the “t1/2 increased by, treated vs control group” value is recorded as 45.45%.

As for `CCCCNC(=O)NS(=O)(=O)c1ccc(C)cc1` [Tolbutamide], under setting [7], the Tmax was 2.67 ± 0.52 h, the t1/2z came out at 9.10 ± 4.20 h and the half-life was 12.7 ± 4.84 h. The Tmax (male, Sprague-Dawley, rat, in vivo, po, Tmax) came out at 2.33 ± 0.52 h. Under setting [8], the CL/F was 0.333 mL/min/kg and the Vd/F stood at 0.27 ± 0.04 L/kg. In addition, the Cmax (male, Sprague-Dawley, rat, plasma, po, Cmax, Control group: oral probe cocktail only (10 mg/kg; tolbutamide 1 mg/kg), rats, n = 6) came to 3700 ng/mL. Also, the Cmax (male, Sprague-Dawley, rat, plasma, po, Cmax, Treated group: oral probe cocktail (10 mg/kg; tolbutamide 1 mg/kg) after 7 days oral poziotinib 5 mg/kg, rats, n = 6) turned out to be 4920 ng/mL. Besides, the Vd/F (male, Sprague-Dawley, rat, plasma, po, Treated group: oral probe cocktail (10 mg/kg; tolbutamide 1 mg/kg) after 7 days oral poziotinib 5 mg/kg, rats, n = 6) stood at 0.25 ± 0.1 L/kg. Further, under setting [3], the “AUC (0–∞) increasing by, treated vs control group” value is 51.60% and the “CLz/F lower than control group by” value is 50%. Also, under setting [9], the “AUC(0–t) of treated group as fold of control group value” was 1.43 fold and the “CLz/F of treated group as fold of control group value” came to 0.5 fold.
